# From ChEMBL document CHEMBL1201862, “PubChem BioAssay data set” (2004)
# Active and inactive are the calls of the source. No rule for the calls is given here.
# Tests used:
# Format in all cases: functional
# [1] = molecular target: ALK tyrosine kinase receptor (Homo sapiens, UniProt Q9UM73);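 also: ALK tested as one member of a kinase panel screen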
# [2] = molecular target: T1, Serine/threonine-protein kinase TAO1 (Homo sapiens, UniProt Q7L7X3)
# T1 sequence (Q7L7X3 whole entry): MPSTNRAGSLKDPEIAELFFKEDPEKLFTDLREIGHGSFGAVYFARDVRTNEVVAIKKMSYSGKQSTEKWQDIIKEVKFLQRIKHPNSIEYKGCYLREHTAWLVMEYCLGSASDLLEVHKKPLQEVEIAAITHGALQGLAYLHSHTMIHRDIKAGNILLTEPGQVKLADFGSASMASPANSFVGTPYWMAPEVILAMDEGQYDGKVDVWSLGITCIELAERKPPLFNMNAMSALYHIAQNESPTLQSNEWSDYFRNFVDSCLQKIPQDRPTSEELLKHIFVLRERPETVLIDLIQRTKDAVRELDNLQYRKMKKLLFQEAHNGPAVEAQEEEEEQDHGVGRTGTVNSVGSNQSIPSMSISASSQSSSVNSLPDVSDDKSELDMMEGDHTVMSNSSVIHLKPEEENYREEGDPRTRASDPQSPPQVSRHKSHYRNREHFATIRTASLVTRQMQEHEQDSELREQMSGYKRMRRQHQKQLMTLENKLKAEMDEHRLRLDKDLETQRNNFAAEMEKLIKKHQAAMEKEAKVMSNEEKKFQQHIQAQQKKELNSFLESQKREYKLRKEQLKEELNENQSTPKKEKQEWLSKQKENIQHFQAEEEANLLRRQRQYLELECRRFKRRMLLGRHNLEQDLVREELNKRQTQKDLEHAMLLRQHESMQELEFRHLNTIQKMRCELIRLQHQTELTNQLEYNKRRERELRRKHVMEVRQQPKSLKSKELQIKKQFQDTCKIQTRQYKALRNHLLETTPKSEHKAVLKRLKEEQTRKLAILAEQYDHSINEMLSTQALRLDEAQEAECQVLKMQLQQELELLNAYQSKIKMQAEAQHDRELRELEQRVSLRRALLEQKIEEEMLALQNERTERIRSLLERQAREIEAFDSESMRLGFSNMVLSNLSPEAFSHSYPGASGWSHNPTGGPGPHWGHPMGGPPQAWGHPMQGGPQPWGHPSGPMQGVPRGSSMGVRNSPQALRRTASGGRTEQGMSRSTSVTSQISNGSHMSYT
# [3] = molecular target: Cyclin-dependent kinase 7 (Homo sapiens, UniProt P50613);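 also: value comes from a kinome-wide kinase profiling panel in which CDK7 is one member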
# Cyclin-dependent kinase 7, sequence (P50613 whole entry): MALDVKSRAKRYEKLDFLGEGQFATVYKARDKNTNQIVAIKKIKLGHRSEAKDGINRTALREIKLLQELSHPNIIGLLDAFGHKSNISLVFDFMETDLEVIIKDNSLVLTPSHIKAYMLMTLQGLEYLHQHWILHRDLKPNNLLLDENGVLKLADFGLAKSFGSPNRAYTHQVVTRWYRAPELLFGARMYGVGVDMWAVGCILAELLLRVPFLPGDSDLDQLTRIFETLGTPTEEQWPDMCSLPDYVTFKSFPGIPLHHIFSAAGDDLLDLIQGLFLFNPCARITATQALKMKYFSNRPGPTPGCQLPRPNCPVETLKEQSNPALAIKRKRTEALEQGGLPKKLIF
# [4] = molecular target: Macrophage colony-stimulating factor 1 receptor (Homo sapiens, UniProt P07333);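 also: value comes from the Navigating the Kinome screening panel, CSF1R member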
# Macrophage colony-stimulating factor 1 receptor, sequence (P07333 whole entry): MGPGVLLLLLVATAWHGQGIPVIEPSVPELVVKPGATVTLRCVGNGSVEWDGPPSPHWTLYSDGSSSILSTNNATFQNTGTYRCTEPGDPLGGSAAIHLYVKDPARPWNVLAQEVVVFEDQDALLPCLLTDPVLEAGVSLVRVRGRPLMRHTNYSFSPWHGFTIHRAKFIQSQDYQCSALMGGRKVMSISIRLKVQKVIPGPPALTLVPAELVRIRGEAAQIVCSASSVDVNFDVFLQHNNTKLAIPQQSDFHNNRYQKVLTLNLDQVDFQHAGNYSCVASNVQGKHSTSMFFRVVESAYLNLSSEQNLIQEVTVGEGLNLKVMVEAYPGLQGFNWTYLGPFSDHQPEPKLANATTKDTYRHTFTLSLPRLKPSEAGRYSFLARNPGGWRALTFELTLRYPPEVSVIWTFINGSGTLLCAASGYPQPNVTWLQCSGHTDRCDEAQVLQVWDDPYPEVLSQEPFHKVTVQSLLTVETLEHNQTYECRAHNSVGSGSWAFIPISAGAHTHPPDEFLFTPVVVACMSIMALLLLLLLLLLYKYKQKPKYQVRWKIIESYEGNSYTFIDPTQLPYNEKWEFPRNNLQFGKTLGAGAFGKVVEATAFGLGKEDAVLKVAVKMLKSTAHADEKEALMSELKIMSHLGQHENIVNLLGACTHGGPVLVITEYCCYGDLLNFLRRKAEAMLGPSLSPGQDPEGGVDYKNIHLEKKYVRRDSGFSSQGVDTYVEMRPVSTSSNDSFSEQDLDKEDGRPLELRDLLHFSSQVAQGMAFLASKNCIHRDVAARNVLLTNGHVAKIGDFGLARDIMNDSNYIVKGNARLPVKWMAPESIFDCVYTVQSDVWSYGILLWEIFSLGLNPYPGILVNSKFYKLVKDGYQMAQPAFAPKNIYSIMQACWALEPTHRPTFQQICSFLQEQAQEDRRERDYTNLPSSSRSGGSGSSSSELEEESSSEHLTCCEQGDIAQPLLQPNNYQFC
# [5] = molecular target: Dual specificity tyrosine-phosphorylation-regulated kinase 1A (Homo sapiens, UniProt Q13627);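 also: measured against DYRK1A as one member of a broad kinome profiling panel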
# [6] = molecular target: Tyrosine-protein kinase Lck (Homo sapiens, UniProt P06239);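 also: lck was assayed as one member of a kinase panel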
# Tyrosine-protein kinase Lck, sequence (P06239 whole entry): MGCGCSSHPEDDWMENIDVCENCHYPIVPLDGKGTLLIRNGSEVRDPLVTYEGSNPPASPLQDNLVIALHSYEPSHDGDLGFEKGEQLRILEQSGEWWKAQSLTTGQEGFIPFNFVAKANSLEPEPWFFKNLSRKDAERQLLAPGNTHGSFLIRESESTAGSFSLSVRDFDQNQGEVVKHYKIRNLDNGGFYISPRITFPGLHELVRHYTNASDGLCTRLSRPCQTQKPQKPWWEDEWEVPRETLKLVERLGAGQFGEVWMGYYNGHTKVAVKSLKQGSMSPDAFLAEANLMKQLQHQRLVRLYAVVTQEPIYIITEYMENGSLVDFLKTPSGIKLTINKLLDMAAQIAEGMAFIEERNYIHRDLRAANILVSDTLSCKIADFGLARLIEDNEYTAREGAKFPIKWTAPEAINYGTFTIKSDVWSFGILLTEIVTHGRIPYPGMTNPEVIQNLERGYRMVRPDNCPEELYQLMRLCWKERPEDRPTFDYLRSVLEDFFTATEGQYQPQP
# [7] = molecular target: T2, Tyrosine-protein kinase JAK3 (Homo sapiens, UniProt P52333)
# T2 sequence (P52333 whole entry): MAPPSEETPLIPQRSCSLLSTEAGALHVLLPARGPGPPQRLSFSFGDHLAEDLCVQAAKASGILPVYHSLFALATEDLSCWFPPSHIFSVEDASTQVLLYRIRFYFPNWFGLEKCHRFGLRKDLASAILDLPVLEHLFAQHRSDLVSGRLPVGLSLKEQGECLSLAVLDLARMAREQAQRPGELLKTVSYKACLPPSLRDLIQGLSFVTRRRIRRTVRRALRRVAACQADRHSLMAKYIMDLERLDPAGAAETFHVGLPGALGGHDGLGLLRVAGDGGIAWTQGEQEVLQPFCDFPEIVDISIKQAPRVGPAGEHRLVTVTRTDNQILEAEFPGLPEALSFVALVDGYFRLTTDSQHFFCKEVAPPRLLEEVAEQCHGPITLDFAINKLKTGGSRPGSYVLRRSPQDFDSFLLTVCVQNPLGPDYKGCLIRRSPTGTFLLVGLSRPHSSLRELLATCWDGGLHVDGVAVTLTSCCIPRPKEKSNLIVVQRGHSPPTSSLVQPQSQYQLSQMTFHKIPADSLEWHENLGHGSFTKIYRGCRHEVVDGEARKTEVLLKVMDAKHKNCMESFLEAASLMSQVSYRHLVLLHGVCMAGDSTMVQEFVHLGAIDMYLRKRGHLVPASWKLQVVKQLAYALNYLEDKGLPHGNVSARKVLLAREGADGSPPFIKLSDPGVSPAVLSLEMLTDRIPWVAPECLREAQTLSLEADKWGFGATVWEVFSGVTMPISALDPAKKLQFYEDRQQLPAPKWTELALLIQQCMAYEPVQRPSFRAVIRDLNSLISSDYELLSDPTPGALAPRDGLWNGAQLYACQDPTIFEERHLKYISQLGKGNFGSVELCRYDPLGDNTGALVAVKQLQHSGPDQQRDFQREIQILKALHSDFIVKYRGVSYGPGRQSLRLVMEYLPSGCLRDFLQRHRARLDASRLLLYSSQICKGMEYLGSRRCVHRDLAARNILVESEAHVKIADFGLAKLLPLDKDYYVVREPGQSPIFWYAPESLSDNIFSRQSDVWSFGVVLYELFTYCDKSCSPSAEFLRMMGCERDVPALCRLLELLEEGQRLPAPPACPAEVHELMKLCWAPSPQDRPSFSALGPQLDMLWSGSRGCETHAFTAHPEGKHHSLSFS
# ALK tyrosine kinase receptor, sequence (Q9UM73 whole entry): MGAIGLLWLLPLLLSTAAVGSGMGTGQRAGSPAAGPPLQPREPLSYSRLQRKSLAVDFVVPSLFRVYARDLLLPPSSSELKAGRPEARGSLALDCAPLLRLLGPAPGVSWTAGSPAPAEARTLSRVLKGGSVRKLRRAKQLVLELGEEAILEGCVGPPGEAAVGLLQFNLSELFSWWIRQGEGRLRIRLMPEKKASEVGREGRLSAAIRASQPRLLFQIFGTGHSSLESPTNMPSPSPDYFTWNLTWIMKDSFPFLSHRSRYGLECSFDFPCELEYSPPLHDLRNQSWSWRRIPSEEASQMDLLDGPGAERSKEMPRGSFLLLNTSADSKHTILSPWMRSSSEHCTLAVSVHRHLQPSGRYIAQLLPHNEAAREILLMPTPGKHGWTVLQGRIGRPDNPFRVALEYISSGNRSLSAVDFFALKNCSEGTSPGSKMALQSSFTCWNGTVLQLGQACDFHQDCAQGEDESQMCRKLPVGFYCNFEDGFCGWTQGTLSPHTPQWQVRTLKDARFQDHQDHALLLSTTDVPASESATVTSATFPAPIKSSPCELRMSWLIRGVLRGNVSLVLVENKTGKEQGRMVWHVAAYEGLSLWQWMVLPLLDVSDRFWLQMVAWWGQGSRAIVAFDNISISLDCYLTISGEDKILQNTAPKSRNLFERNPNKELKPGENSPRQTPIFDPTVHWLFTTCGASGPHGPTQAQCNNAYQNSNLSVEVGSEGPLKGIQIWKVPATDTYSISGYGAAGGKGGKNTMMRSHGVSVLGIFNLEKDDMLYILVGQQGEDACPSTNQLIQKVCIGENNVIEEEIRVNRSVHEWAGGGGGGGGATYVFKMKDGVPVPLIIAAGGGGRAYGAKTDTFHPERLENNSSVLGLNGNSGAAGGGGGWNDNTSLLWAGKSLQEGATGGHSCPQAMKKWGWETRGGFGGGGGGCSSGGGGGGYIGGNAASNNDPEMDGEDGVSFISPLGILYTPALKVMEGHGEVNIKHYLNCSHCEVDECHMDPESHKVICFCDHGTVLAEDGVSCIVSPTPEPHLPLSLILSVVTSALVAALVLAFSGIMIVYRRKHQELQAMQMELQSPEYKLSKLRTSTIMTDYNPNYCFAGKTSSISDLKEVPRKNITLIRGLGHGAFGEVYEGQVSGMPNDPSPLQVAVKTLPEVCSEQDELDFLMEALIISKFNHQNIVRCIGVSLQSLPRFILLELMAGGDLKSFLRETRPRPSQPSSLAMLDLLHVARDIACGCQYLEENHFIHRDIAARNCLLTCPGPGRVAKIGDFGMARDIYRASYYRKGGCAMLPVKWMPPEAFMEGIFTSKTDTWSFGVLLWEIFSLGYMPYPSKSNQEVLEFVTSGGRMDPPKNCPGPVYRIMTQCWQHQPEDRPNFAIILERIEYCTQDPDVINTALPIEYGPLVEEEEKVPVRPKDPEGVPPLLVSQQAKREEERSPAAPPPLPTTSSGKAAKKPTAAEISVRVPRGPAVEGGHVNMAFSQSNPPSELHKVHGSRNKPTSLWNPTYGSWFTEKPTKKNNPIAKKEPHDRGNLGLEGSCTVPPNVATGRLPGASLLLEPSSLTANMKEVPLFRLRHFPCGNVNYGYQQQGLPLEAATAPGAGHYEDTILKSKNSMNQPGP
SMILES,Ki [1],Ki [2],Ki [3],Ki [4],Ki [5],Ki [6],Ki [7]
O=c1[nH]c2cc(Br)cnc2[nH]1,63.1 µM (active),12.6 µM (active),12.6 µM (active),> 100 µM (inactive),3.98 µM (active),,
O=C(Nc1cccc(C(F)(F)F)n1)Nc1ccnc2cc(OC(F)F)ccc12,> 6.31 µM (inactive),> 6.31 µM (inactive),> 3.98 µM (inactive),> 2.51 µM (inactive),> 2 µM (inactive),> 6.31 µM (inactive),> 5.01 µM (inactive)
O=C(Nc1cccc(C(F)(F)F)n1)Nc1ccnc2cc(Cl)ccc12,> 6.31 µM (inactive),> 6.31 µM (inactive),> 3.98 µM (inactive),> 2.51 µM (inactive),> 2 µM (inactive),> 6.31 µM (inactive),3.98 µM (active)
CCC1CC(NS(=O)(=O)C2CC2)CC1c1ncc2cnc3[nH]ccc3n12 (stereo unspecified),1 µM (active),> 2 µM (inactive),> 3.98 µM (inactive),1.58 µM (active),> 2 µM (inactive),3.98 µM (active),0.00398 µM (active)
